These results are taken from patent EP1764363A2, “Substituted acetophenonederivatives” (Riemser Arzneimittel AG, priority 2005, dated 2007).

Values after ≈ are worked out from the molar mass of the structure shown. Some results are limits rather than exact numbers.

One test deals with BT20. Kind of test: Chemosensitivity test (modified MTT test EZ4U). Particulars: Homo sapiens, BT-20, 96 h, read-out: IC50-Werte. A general note: Tetrazolium assays rely on reduction of a dye to a coloured formazan, in cell work by metabolically active cells.
A further test has as its system T47D. Kind of test: Chemosensitivity test (modified MTT test EZ4U). Particulars: Homo sapiens, T47D, 96 h, read-out: IC50-Werte.
A further test relates to MIAPaCa2. Kind of test: Chemosensitivity test (modified MTT test EZ4U). Conditions: Homo sapiens, MIA PaCa-2, 96 h, read-out: IC50-Werte.
The next test relates to BxPC3. Kind of test: Chemosensitivity test (modified MTT test EZ4U). Conditions: Homo sapiens, BXPC-3, 96 h, read-out: IC50-Werte.
In the next test the test system is SW620. Kind of test: Chemosensitivity test (modified MTT test EZ4U). Particulars: Homo sapiens, SW-620, 96 h, read-out: IC50-Werte.
A further test relates to HT29. Kind of test: Chemosensitivity test (modified MTT test EZ4U). Conditions: Homo sapiens, HT-29, 96 h, read-out: IC50-Werte.
Another test has as its system MDA-MB435. Kind of test: Chemosensitivity test (modified MTT test EZ4U). Conditions: Homo sapiens, MDA-MB-435, 96 h, read-out: IC50-Werte.
The subject of another test is WI38. Kind of test: Chemosensitivity test (modified MTT test EZ4U). Particulars: Homo sapiens, WI-38, 96 h, read-out: IC50-Werte.
In the next test the test system is DU 145. Kind of test: Chemosensitivity test (modified MTT test EZ4U). Particulars: Homo sapiens, DU-145, 96 h, read-out: IC50-Werte.
A further test deals with CaCo-2. Kind of test: Chemosensitivity test (modified MTT test EZ4U). Particulars: Homo sapiens, Caco-2, 96 h, read-out: IC50-Werte.
The subject of a further test is CRO2B. Kind of test: Chemosensitivity test (modified MTT test EZ4U). Particulars: Homo sapiens, 96 h, read-out: IC50-Werte.
For test [1], the system named is Staphylococcus aureus (Stamm ATCC 6538). Kind of test: Mouse ear test (in vivo), antiseptic effect. The arrangement: key to Keimwachstum (grade): +++: totale Verhinderung des Keimwachstums; ++: Keimwachstum deutlich reduziert aber nicht völlig unterdrückt. Particulars: mouse ears infected with S. aureus ATCC 6538; germ count vs infected untreated animal after 18 and 24 h.

The subject of the next test is Colo205. Kind of test: Chemosensitivity test (modified MTT test EZ4U). Particulars: Homo sapiens, COLO 205, 96 h, read-out: IC50-Werte.
The subject of a further test is S. epidermides. Kind of test: Minimal inhibitory concentration (MHK), microtitre plate, TTC staining. In kind it is cell-based. Conditions: 48h, 36°C.
The subject of a further test is Micrococcus luteus. The description is as above. In kind it is cell-based. Particulars: 48h, 36°C.
The next test relates to Bacillus subitilis. Described as above. Particulars: 48h, 36°C. In kind it is cell-based.
The test system of the next test is S. falcium. The test is described as above. In kind it is cell-based. Particulars: 48h, 36°C.
The nature of test [2]: Radical scavenger screening with DPPH radicals (DPPH test). Particulars: Konzentrationen 500 und 1000µg/ml. From the text: […] die 6 Verbindungen HMF2, HMF-3, CH-1, L5, Q20 und […]. Die […] durch den DPPH-Test ermittelt, wobei sich die UV/VIS-Absorption des freien stabilen […] (Diphenyl-β-picrylhydrazin) in Abhängigkeit vom Zustand von […]. Die Auswertung erfolgt qualitativ (dünnschichtchromatographisch) und quantitativ (photometrisch) mit Ascorbinsäure […] Molyneux P. (2004) The use of the stabel free radical diphenylpicrylhydrazyl (DPPH) for estimating antioxidant activity. Songklanakarin J Sci Technol. 26(2): 211-219).
On the technique in general: The DPPH test is a chemical assay of radical scavenging.

The next test concerns Escherichia coli. Kind of test: Minimal inhibitory concentration (MHK), microtitre plate, TTC staining. In kind it is cell-based. Conditions: 48h, 36°C.
The test system of a further test is E. hirae. Described as above. In kind it is cell-based. Conditions: 48h, 36°C.
The subject of a further test is S. aureus. The test is described as above. Particulars: 48h, 36°C. In kind it is cell-based.
In the next test the test system is Rhodococcus equi. The description is as above. In kind it is cell-based. Particulars: 48h, 36°C.
A further test has as its system Salmonella sp. Described as above. In kind it is cell-based. Conditions: 48h, 36°C. From the text: Das Inokulum für die Tests wurde durch Verdünnung der Mikroorganismen in wässriger 0,85% NaCI-Lösung hergestellt, die Verdünnung auf die Stufe 0,5 nach McFarland eingestellt und die Konzentration spektrometrisch bei einer Wellenlänge von 580nm überprüft. Die Zellsuspensionen wurden zur Verwendung in den Tests auf 10^4 UFC/ml verdünnt. Die MHK-Tests erfolgten (Vorschrift nach J. N. P. Eloff, Planta Medica, Vol. 64, 1998, p 711-713) in Mikrotiterplatten mit 96 Vertiefungen. Serienverdünnungen der Konzentrationen lagen im Bereich 1,00 - 0,0015 mg/mL. Als Kontrollsubstanzen dienten Chloramphenicol bzw. Nistatin (Merck) in einer Konzentration von 0,062 - 0,005 mg/ml bzw. 0,0125 - 0,001 mg/ml. Das Inokulum (100 µl) wurde in alle Vertiefungen gegeben und die Platten für 48h bei 36°C inkubiert. Die antimikrobielle Aktivität wurde durch Zugabe von 20 µl einer 0,5% igen wässrigen Lösung von TTC (Tetrazoliumchlorid, Merck) pro Vertiefung detektiert. Die minimale Hemmkonzentration (MHK) wird als die niedrigste Konzentration der Verbindung definiert die das sichtbare Wachstum hemmt (durch TTC-Färbung indiziert).

For another test, the system named is Candida albicans. The description is as above. Conditions: 48h, 36°C. In kind it is cell-based.

Text for BT20: (§1) Die Verbindungen wurden in Dimethylsulfoxid (DMSO) als konzentrierte Stammlösungen (100-400fach) gelöst und für Proliferationstests in Zellkulturmedium verdünnt.
(§2) Mit Ausnahme von SIM, KAL Ewingsarkom (in Wien etabliert) und LAN Neuroblastom (University of Los Angeles) wurden die Zell-Linien von der American Type Culture Collection (ATCC, Rockville, MD) bezogen und zum Erhalt von konfluenten Monolayerkulturen in RPMI-1640 Bikarbonatmedium (Seromed, Berlin, Deutschland) in einem Zellkulturschrank (5% CO2, 37°C) kultiviert. Mit der Ausnahme der murinen NlH3T3 Fibroblasten sind alle verwendeten Zell-Linien humanen Ursprungs. Die Zellen wurden auf Verunreinigung durch Mycoplasmen untersucht. Das Medium wurde mit 10% hitzeinaktiviertem foetalem Kälberserum (Seromed) and 4 mM Glutamin ergänzt. Die Zellen wurden durch Trypsinierung subkultiviert (0.03% Trypsin enthaltend 0.02% EDTA, dreimal pro Woche). Die Trypsinierung wurde durch Verwendung vom komplettem Zellkulturmedium gestoppt. Die Zellzahl wurde unter Verwendung eines TOA Sysmex Microzellzählers (TOA, Tokyo, Japan) bestimmt.
(§3) 10^4 Zellen/well wurden in Mikrotiterplatten mit 96 Vertiefungen (100 µl Medium) verteilt und die zu testenden Verbindungen wurden in einem weiteren Volumen von 100 µl hinzugegeben. […]
Text for BxPC3: as §1, §2, §3
Experimental for CRO2B: as §1
(§4) Die Zellen wurden auf Verunreinigung durch Mycoplasmen untersucht. Das Medium wurde mit 10% hitzeinaktiviertem foetalem Kälberserum (Seromed) and 4 mM Glutamin ergänzt. Die Zellen wurden durch Trypsinierung subkultiviert (0.03% Trypsin enthaltend 0.02% EDTA, dreimal pro Woche). Die Trypsinierung wurde durch Verwendung vom komplettem Zellkulturmedium gestoppt. Die Zellzahl wurde unter Verwendung eines TOA Sysmex Microzellzählers (TOA, Tokyo, Japan) bestimmt.
(§5) 10^4 Zellen/well wurden in Mikrotiterplatten mit 96 Vertiefungen (100 µl Medium) verteilt und die zu testenden Verbindungen wurden in einem weiteren Volumen von 100 µl hinzugegeben. Alle Verbindungen wurden entweder in 3 fixen Konzentrationen eingesetzt (für Tabellen 1-3) oder in 10 Stufen verdünnt unter Verwendung von Zweifachverdünnungsschritten zur Bestimmung der IC50-Werte (dreifache Ansätze, in den meisten Fällen vierfache Ansätze). Die Platten wurden, mit der Ausnahme der Tests zur Untersuchung des Zusammenhangs von Applikationsdauer und Zellreaktion, 4 Tage lang unter Zellkulturbedingungen inkubiert und die Zellviabilität wurde unter Verwendung eines modifizierten MTT Tests bestimmt (Formazan-Farbstoffbildung aus Tetrazoliumsalzen wie MTT, XTT, WST-1 und anderen durch das mitochondriale Reduktionsystem Succinattetrazolium Reductase EC 1.3.99.1.; EZ4U nichtradioaktiver Zellproliferations- und Cytotoxizitätstest, Biomedica, Wien, Österreich; Testmanual unter: www.bmgrp.com). Hierbei wurde die mitochondriale Aktivität und dadurch die Zellviabilität/Zellzahl bestimmt. Kurz gesagt wurde das gelieferte Substrat in einer Aktivatorlösung gelöst und 20 µl der Mischung wurden für 2 Stunden pro Vertiefung hinzugegeben (Gesamtvolumen 200 µl). Die optische Dichte wurde bei 450 nm unter Verwendung einer leeren Vertiefung als Referenz in einem Mikroplattenlesegerät (Eurogenetics, Brüssel, Belgien) bestimmt. Für jede Zell-Line wurden Vertiefungen verwendet um das MTT-Signal der Mediumkontrollen ohne Testsubstanzen zu bestimmen. Die Proliferation in den Test-Vertiefungen wurde in Bezug auf diese Kontrollwerte (100%) errechnet. Die Testergebnisse wurden zwischen 0,3 und 1,5 optischer Dichte für langsam bzw. schnellproliferierende Zellen erfasst. Diese Dosis-Wirkungs-Beziehungen wurden verwendet um die IC50 (Konzentration bei der das Wachstum um 50% gehemmt wird) unter Verwendung von PRISM Scientific Software (GraphPad Inc., San Diego, CA) zu berechnen.
Experimental for CaCo-2: as §1, §4, §5
Experimental for Colo205: as §1, §4, §5
Text for DU 145: as §1, §2, §3
Text for HT29: as §1, §2, §3
Text for MDA-MB435: as §1, §2, §3
Experimental for MIAPaCa2: as §1, §4, §5
Experimental for SW620: as §1, §4, §5
Experimental for T47D: as §1, §4, §5
Experimental for WI38: as §1, §4, §5

The term IC50 denotes the concentration that inhibits the measured activity by half. Regarding `COc1cc(C2CC(=O)c3ccccc3O2)ccc1OCC=C(C)C` (stereo not shown) [Q25, 2-[3-Methoxy-4-(3-methylbut-2-enyloxy)phenyl]chroman-4-on], the IC50 was 45 µg/mL (≈ 133 µM) with BT20; 10 µg/mL (≈ 29.6 µM) in the test with T47D; 57 µg/mL (≈ 168 µM) in the test on MIAPaCa2; 80 µg/mL (≈ 236 µM) in the test on BxPC3; 84 µg/mL (≈ 248 µM) with SW620; 18 µg/mL (≈ 53.2 µM) in the test on HT29. Also, the IC50 is 34 µg/mL (≈ 100 µM) in the test on MDA-MB435; 8.2 µg/mL (≈ 24.2 µM) in the test on WI38; 15 µg/mL (≈ 44.3 µM) in the test on DU 145; 18 µg/mL (≈ 53.2 µM) in the test on CaCo-2; 6 µg/mL (≈ 17.7 µM) in the test on CRO2B; 75 µg/mL (≈ 222 µM) in the test with Colo205. In addition, the “Keimwachstum (grade)” value in [1] is reported as “++”. Besides, the Keimwachstum reduziert auf in test [1] is 30%.

Turning to `COc1cc(/C=C/C(=O)c2ccccc2O)ccc1O` [Q20, 3-(4-Hydroxy-3-methoxyphenyl)-1-(2-hydroxyphenyl)-propenon], the IC50 with BT20 was 33 µg/mL (≈ 122 µM); in the test on T47D, 25 µg/mL (≈ 92.5 µM); in the test with MIAPaCa2, 18 µg/mL (≈ 66.6 µM); with BxPC3, 33 µg/mL (≈ 122 µM); in the test on SW620, 17 µg/mL (≈ 62.9 µM); in the test with HT29 it was 16 µg/mL (≈ 59.2 µM). Further, the IC50 in the test on MDA-MB435 amounted to 24 µg/mL (≈ 88.8 µM); in the test on WI38, 8.3 µg/mL (≈ 30.7 µM); in the test with DU 145 it was 16 µg/mL (≈ 59.2 µM); in the test with CaCo-2, 12 µg/mL (≈ 44.4 µM); in the test on CRO2B, 12 µg/mL (≈ 44.4 µM); with Colo205, 27 µg/mL (≈ 99.9 µM). Further, the MHK-Werte with S. epidermides is 0,5 mg/ml; in the test with Micrococcus luteus it was 1,0 mg/ml; with Bacillus subitilis, 0,5 mg/ml; in the test on S. falcium, 0,3 mg/ml; in the test on Escherichia coli, >1,0 mg/ml; in the test on E. hirae it was >1,0 mg/ml. The MHK-Werte is on record as 1,0 mg/ml in the test with S. aureus, >1,0 mg/ml in the test on Rhodococcus equi, >1,0 mg/ml in the test with Salmonella sp and 0,3 mg/ml in the test with Candida albicans. The molecule further returned a Radikalfänger-Effekt in [2] of 98%. For the same molecule, the “Keimwachstum (grade)” value in test [1] is listed as “++”. This molecule also came in with a Keimwachstum reduziert auf in test [1] of 30%.

For the molecule `COc1cc(/C=C/C(=O)c2ccccc2O)ccc1OCC=C(C)C` [Q21, 1-(2-Hydroxyphenyl)-3-[3-methoxy-4-(3-methylbut-2-enyloxy)phenyl]propenon], the MHK-Werte with S. epidermides was >1,0 mg/ml; with Micrococcus luteus it was >1,0 mg/ml; in the test with Bacillus subitilis, >1,0 mg/ml; in the test with S. falcium, 0,8 mg/ml; in the test on Escherichia coli, >1,0 mg/ml; with E. hirae, >1,0 mg/ml. The MHK-Werte with S. aureus is on record as >1,0 mg/ml; in the test with Rhodococcus equi, >1,0 mg/ml; with Salmonella sp, 0,9 mg/ml; in the test on Candida albicans it was 0,6 mg/ml.
